Data on two compounds can be found in patent publication US20130005676A1 (UNIVERSITY OF ROCHESTER, priority 2009, published 2013).

The subject of experiment [1] is mice with inflammatory pain (CFA). The experiment is described as follows: Inflammatory pain (CFA in paw): mechanical allodynia (Von Frey) and thermal hyperalgesia. The experiment is classed as in vivo. The source says:
Peripheral inflammation was induced by injection of Complete Freud Adjuvant (CFA, mixed with an equal amount of oil, […], Jackson labs) (Raghavendra et al., “Complete Freunds Adjuvant-Induced Peripheral Inflammation Evokes Glial Activation and Proinflammatory Cytokine Expression in the CNS,” Eur. J. Neurosci. 20:467-473 (2004), which is hereby incorporated by reference in its entirety). […] Neuropathic pain was induced by ligation of the sciatic nerve with 4.0 polypropylene suture in mice sedated with ketamine (60 mg/kg, i.p.) and xylazine (10 mg/kg, i.p.) (Bennett et al., “A Peripheral Mononeuropathy in Rat that Produces Disorders of Pain Sensation Like Those Seen in Man,” Pain 33:87-107 (1988); Martucci et al., “The Purinergic Antagonist PPADS Reduces Pain Related Behaviours and Interleukin-1 beta, Interleukin-6, iNOS and nNOS Overproduction in Central and Peripheral Nervous System After Peripheral Neuropathy in Mice,” Pain 137:81-95 (2008), which are hereby incorporated by reference in their entirety).
Mechanical allodynia was evaluated using repeated stimulations with a Von Frey filament exerting 0.02 grams of force onto the plantar surface (Colburn et al., “The Effect of Site and Type of Nerve Injury on Spinal Glial Activation and Neuropathic Pain Behavior,” Exp. Neurol. 157:289-304. (1999), which is hereby incorporated by reference in its entirety). The percentage of negative responses of a total of 10 trials was calculated for each foot. Thermal hyperalgesia was assessed using an Analgesymeter (Ugo Basile, Comerio, Italy) (Stein et al., “Intrinsic Mechanisms of Antinociception in Inflammation: Local Opioid Receptors and Beta-Endorphin,” J. Neurosci. 10:1292-1298 (1990), which is hereby incorporated by reference in its entirety). In short, a mobile radiant heat source was focused on the hind paw, and the paw withdrawal latencies were defined as the time taken by the mouse to remove its hind paw from the heat source (max 20 sec to avoid tissue damage). The paw withdrawal was repeated three times for each foot and the average calculated. To avoid conditioning to stimulation a 5 min rest period was interposed between each trial in both thermal and mechanical tests. Behavioral parameters were evaluated prior to intraplantar injection of CFA or nerve ligation (i.e. day 0), and again on day 3-4 in mice receiving the CFA injection, and at day 5-7 in mice with nerve ligation unless otherwise noted. Prior to injection of CCPA, saline, or acupuncture in the Zusanli point, the mice were placed in a restraining under light isoflurane anesthesia (˜1%). The total duration of anesthesia was ˜2 min and mice with inflammatory, neurogenic pain, and their controls were treated similarly. 2-chloro-N6-cyclopentyl-adenosine (CCPA, 0.1 mM, 20 μl) was injected in the Zusanli point ˜5 min before acupuncture. […] The needle was slowly rotated ˜2 time (˜20-30 sec) every 5 min for a total of 30 min during an acupuncture session. A microdialysis probe (MD-2211, Bioanalytical systems, West Lafayette, Ind.) was implanted 1-3 hrs prior to collection of microdialysis samples. The microdialysis probe was implanted in a distance of 0.4-0.6 mm from the Zusanli point. The microdialysis probe was perfused with Ringer's solution at a rate of 1 μl per minute. The microdialysates were collected on ice and the perfusate collected over a 30 min period (30 μl) was immediately frozen at −80° C. until HPLC analysis. Deoxycoformycin was administered in a dose of 50 mg/kg i.p. 30 min prior to acupuncture.

The subject of experiment [2] is mice with neuropathic pain. The experiment is described as follows: Neuropathic pain (sciatic nerve ligation): mechanical allodynia and thermal hyperalgesia. Particulars: WT mice, combined with acupuncture. The experiment is classed as in vivo. The method, then: Peripheral inflammation was induced by injection of Complete Freud Adjuvant (CFA, mixed with an equal amount of oil, total volume 0.1 ml) in the plantar surface of the left hind paw of mice (25-30 g, Jackson labs) (Raghavendra et al., “Complete Freunds Adjuvant-Induced Peripheral Inflammation Evokes Glial Activation and Proinflammatory Cytokine Expression in the CNS,” Eur. J. Neurosci. 20:467-473 (2004), which is hereby incorporated by reference in its entirety). An equal amount of saline (0.1 ml) was injected in the right hind paw as control. Neuropathic pain was induced by ligation of the sciatic nerve with 4.0 polypropylene suture in mice sedated with ketamine (60 mg/kg, i.p.) and xylazine (10 mg/kg, i.p.) (Bennett et al., “A Peripheral Mononeuropathy in Rat that Produces Disorders of Pain Sensation Like Those Seen in Man,” Pain 33:87-107 (1988); Martucci et al., “The Purinergic Antagonist PPADS Reduces Pain Related Behaviours and Interleukin-1 beta, Interleukin-6, iNOS and nNOS Overproduction in Central and Peripheral Nervous System After Peripheral Neuropathy in Mice,” Pain 137:81-95 (2008), which are hereby incorporated by reference in their entirety).
Mechanical allodynia was evaluated using repeated stimulations with a Von Frey filament exerting 0.02 grams of force onto the plantar surface (Colburn et al., “The Effect of Site and Type of Nerve Injury on Spinal Glial Activation and Neuropathic Pain Behavior,” Exp. Neurol. 157:289-304. (1999), which is hereby incorporated by reference in its entirety). The percentage of negative responses of a total of 10 trials was calculated for each foot. Thermal hyperalgesia was assessed using an Analgesymeter (Ugo Basile, Comerio, Italy) (Stein et al., “Intrinsic Mechanisms of Antinociception in Inflammation: Local Opioid Receptors and Beta-Endorphin,” J. Neurosci. 10:1292-1298 (1990), which is hereby incorporated by reference in its entirety). In short, a mobile radiant heat source was focused on the hind paw, and the paw withdrawal latencies were defined as the time taken by the mouse to remove its hind paw from the heat source (max 20 sec to avoid tissue damage). The paw withdrawal was repeated three times for each foot and the average calculated. To avoid conditioning to stimulation a 5 min rest period was interposed between each trial in both thermal and mechanical tests. Behavioral parameters were evaluated prior to intraplantar injection of CFA or nerve ligation (i.e. day 0), and again on day 3-4 in mice receiving the CFA injection, and at day 5-7 in mice with nerve ligation unless otherwise noted. Prior to injection of CCPA, saline, or acupuncture in the Zusanli point, the mice were placed in a restraining under light isoflurane anesthesia (˜1%). […]

Experiment [3] concerns inflammatory pain, rat formalin test. Particulars: local injection; cited from earlier work.
The test system of a further experiment is AMP deaminase. The experiment is described as follows: HPLC analysis of AMP degradation in muscle/subcutis sections from the Zusanli point. In kind it is biochemical, mice. Particulars: 200 μM, tissue incubated in 1 mM AMP for 45 min. Here is the method: The analysis of enzymatic degradation of purines was based on sections (400 μm) of skeletal muscles with overlying subcutis harvested from tissue in the Zusanli point. Each section per well was placed into a 6-well plate with 2 ml (in a phosphate-free buffer (in mM: 2 CaCl2, 120 NaCl, 5 KCL, 10 Glucose, 20 HEPES, pH=7.3) and bubble with 100% O2 containing 1 mM AMP with or without 500 μM deoxycoformycin (Tocris Bioscience, UK). The samples were collected from each well at 0 and 45 min and stored at −80° C. for HPLC analysis. The analyses were carried out on an ESA reverse-phase H584 HPLC system (ESA Inc., USA) and an ESA model 526 UV detector (ESA Inc.) as previously described (Cui et al., “The Organic Cation Transporter-3 is a Pivotal Modulator of Neurodegeneration in the Nigrostriatal Dopaminergic Pathway,” Proc. Nat'l. Acad. Sci. USA 106:8043-8048 (2009); Volonte et al., “Development of an HPLC Method for Determination of Metabolic Compounds in Myocardial Tissue,” J. Pharm. Biomed. Anal. 35:647-653 (2004), which are hereby incorporated by reference in their entirety). Chromatographic separation was achieved by using a Lichrospher® 100 RP-18 column (5 μm, 250 mm×3 mm; Merck, Germany). […] Eluted purines were detected at 260 nm, and the chromatographic peaks were integrated using CoulArray software.

Experiment [4] relates to mice with inflammatory or neuropathic pain. The experiment is described as follows: Statements covering both inflammatory and neuropathic pain models. Particulars: 50 mg/kg i.p. 30 min prior to 30 min acupuncture; vehicle + acupuncture ~[…]. In kind it is in vivo. Here is the method: Peripheral inflammation was induced by injection of Complete Freud Adjuvant (CFA, mixed with an equal amount of oil, total volume 0.1 ml) in the plantar surface of the left hind paw of mice (25-30 g, Jackson labs) (Raghavendra et al., “Complete Freunds Adjuvant-Induced Peripheral Inflammation Evokes Glial Activation and Proinflammatory Cytokine Expression in the CNS,” Eur. J. Neurosci. 20:467-473 (2004), which is hereby incorporated by reference in its entirety). An equal amount of saline (0.1 ml) was injected in the right hind paw as control. […]
Mechanical allodynia was evaluated using repeated stimulations with a Von Frey filament exerting 0.02 grams of force onto the plantar surface (Colburn et al., “The Effect of Site and Type of Nerve Injury on Spinal Glial Activation and Neuropathic Pain Behavior,” Exp. Neurol. 157:289-304. (1999), which is hereby incorporated by reference in its entirety). The percentage of negative responses of a total of 10 trials was calculated for each foot. Thermal hyperalgesia was assessed using an Analgesymeter (Ugo Basile, Comerio, Italy) (Stein et al., “Intrinsic Mechanisms of Antinociception in Inflammation: Local Opioid Receptors and Beta-Endorphin,” J. Neurosci. 10:1292-1298 (1990), which is hereby incorporated by reference in its entirety). […] The paw withdrawal was repeated three times for each foot and the average calculated. […] Behavioral parameters were evaluated prior to intraplantar injection of CFA or nerve ligation (i.e. day 0), and again on day 3-4 in mice receiving the CFA injection, and at day 5-7 in mice with nerve ligation unless otherwise noted. […]

The test system of another experiment is wild type mice. The experiment is described as follows: Touch sensitivity (Von Frey filaments) after injection in the Zusanli point of wild type mice. The experiment is classed as in vivo. Particulars: 5 mM injected in Zusanli point, tested one hour after injection. The method, then:
Using Von Frey Filaments, a baseline for pain threshold was established in the wild type. The mice were then injected with 5 mM of dibut 1-cAMP (db-cAMP) in the zunsanli accu-point. To ensure the proper spread of db cAMP, the mice were tested for pain one hour after injections and assessed for touch sensitivity. The experiment was repeated in the same animals 24 h later and yielded similar results.
Mechanical allodynia was evaluated using repeated stimulations with a Von Frey filament exerting 0.02 grams of force onto the plantar surface (Colburn et al., “The Effect of Site and Type of Nerve Injury on Spinal Glial Activation and Neuropathic Pain Behavior,” Exp. Neurol. 157:289-304. (1999), which is hereby incorporated by reference in its entirety). The percentage of negative responses of a total of 10 trials was calculated for each foot. Thermal hyperalgesia was assessed using an Analgesymeter (Ugo Basile, Comerio, Italy) (Stein et al., “Intrinsic Mechanisms of Antinociception in Inflammation: Local Opioid Receptors and Beta-Endorphin,” J. Neurosci. 10:1292-1298 (1990), which is hereby incorporated by reference in its entirety). […] The paw withdrawal was repeated three times for each foot and the average calculated. […]

The structures appear in SMILES notation. “Also recorded” adds a separate entry of the source.

As for `OC[C@H]1O[C@@H](n2cnc3c2NC=NC[C@H]3O)C[C@@H]1O` [deoxycoformycin], the “tactile or thermal sensitivity when not combined with acupuncture” value in experiment [1] (CFA, no acupuncture) was “does not alter the pain sensitivity; also recorded: no effect”. Moreover, the “effect on duration of acupuncture pain relief, mechanical and thermal stimulation” value in experiment [1] (WT mice, combined with acupuncture) was “prolonged”; in experiment [2], “prolonged”. Moreover, the “pain relief on co-administration with an adenosine kinase inhibitor” value in experiment [3] is “augmented the pain relief”. Further, the entries for the “reduction of AMP conversion to IMP” value with AMP deaminase and in the experiment on AMP deaminase (listed as Deoxycoformycin) were about 50% and “approximately 50%”, respectively. Besides, the “duration of suppression of mechanical allodynia and thermal pain” value in experiment [4] is about 3.0 h.

As to `CCCC(=O)Nc1ncnc2c1ncn2[C@@H]1O[C@@H]2COP(=O)(O)O[C@H]2[C@H]1OC(=O)CCC` [dibutyryl cAMP], in the experiment on wild type mice, the sensitivity to touch entry is given as “increased transiently”.
